Test results reported in publication PMC9585585, “Discovery of Small-Molecule Allosteric Inhibitors of PfATC as Antimalarials” (Journal of the American Chemical Society, 2022).
Where “and” joins values, the source holds several entries; their conditions need not be identical. Equal values may be shown once. Read-outs that look alike come from different tables or passages of the source.

Experiments:
[1] = molecular target: T1, PfATC (Plasmodium falciparum, UniProt A0A5K1K910); experiment: biochemical; settings: for IC50: in vitro activity assay, PfATC 50 nM, 2 mM CP, 1 mM aspartate, read-out: PfATC IC50
Procedure: Following washing with Lysis buffer
Excess imidazole was removed and the His-tag was cleaved
400Then, the sample was loaded onto a 5 ml HiTrap SP HP column (GE Healthcare, USA) and
410PfATC activity assay. Enzymatic reactions were performed in a total volume of 150 µL in 50 mM
Small-molecule dose-response curves were
The reactions were initiated by adding CP and quenched after 10 min with
After plates were sealed with transparent sealing
(§1) 420tape to prevent evaporation and incubated overnight in the dark place at room temperature. After
Analyses were performed using
The enzymatic assay was performed as described herein above for
Briefly, the reaction was carried out at room
The reaction was initiated by
Then the plate was covered by sealing
(§2) 430tape and kept in dark place at room temperature and then heated to 95 °C for 15min in dark and kept

[2] = molecular target: T2, HsATC (Homo sapiens, UniProt P27708); experiment: HsATC activity assay; type: biochemical; settings: in vitro activity assay
T2 construct: ATCase domain of CAD; made in house; host or cells: E. coli BL21 star
T2 sequence (P27708 1918-2225 limits assumed): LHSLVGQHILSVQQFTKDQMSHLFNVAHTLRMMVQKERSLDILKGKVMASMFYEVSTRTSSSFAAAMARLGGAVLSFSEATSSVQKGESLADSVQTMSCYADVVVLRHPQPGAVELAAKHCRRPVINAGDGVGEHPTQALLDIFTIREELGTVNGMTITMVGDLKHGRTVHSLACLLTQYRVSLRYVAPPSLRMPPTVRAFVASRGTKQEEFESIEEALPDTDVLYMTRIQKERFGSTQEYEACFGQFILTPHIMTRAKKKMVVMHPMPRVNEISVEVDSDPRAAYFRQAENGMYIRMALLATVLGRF
Procedure: 417100μL of stop mix (two volumes of Antipyrine (26.5 mM 2,3-Dimethyl-1-phenyl-3-pyrazolin-5-
418one in 50% (v/v) sulfuric acid) and one volume of 2,3-Butanedione monoxime (80 mM 2,3-
419Butanedione monoxime in 5% (v/v) acetic acid). After plates were sealed with transparent sealing
as §1
421incubation, the plates were heated at 95 °C for 15 min in dark place, and kept for 30 min before
422measuring at 466 nm suing a Synergy H1 Hybrid Reader (BioTek). Analyses were performed using
423Microsoft Excel and Graph Pad Prism.
424HsATC activity assay. The enzymatic assay was performed as described herein above for
425enzymatic assay of PfATC with minor modifications. Briefly, the reaction was carried out at room
426temperature in a total volume of 150 μl of 10 mM L-aspartate and 5 mM carbamoyl phosphate
427saturated substrate solution in 50 mM Tris-Acetate buffer pH 8.3. hsATC was pre-incubated with
428inhibitor and L-Asp for 10 min at room temperature on a shaker. The reaction was initiated by
429adding CP and stopped after 5 min with […] color mix. Then the plate was covered by sealing
as §2
431the plate in the dark for another 30 min before measuring the absorbance at 466 nm suing a Synergy
432H1 Hybrid Reader (BioTek). […]

[3] = molecular target: T1, PfATC; experiment: Differential scanning fluorimetry (DSF); type: binding; settings: PfATC 5 µM, read-out: ΔTM of PfATC (thermal stabilization)
Text: (§3) 464Data collection, processing and refinement. All the diffraction data sets were collected using
(§4) 465synchrotron radiation wavelength 1.033200 Å at DESY beamline P11. The data collected for
(§5) 466PfATC crystals grown in presence of fragments and compounds were processed using XDSAPP 25
(§6) 467and Aimless 26, and the structures were solved and initially refined using the DIMPLE pipeline
(§7) 468within CCP4 suite 26 with coordinates of the unliganded PfATC (5ILQ) as a starting model. The
(§8) 469final refinement included manual rebuilding in coot 27 and Refmac5 28. The resulting crystal
(§9) 470structures were deposited in PDB 29. Data collection and processing statistics are show in Table
(§10) 472Differential Scanning Fluorimetry (DSF). The purified PfATC was incubate with 5000 × Sypro
(§11) 473Orange (Invitrogen) and dilution it to 1:400 stock of dye in assay buffer (50 mM Tris-HCl pH =8.0
(§12) 474and 300 mM NaCl). Each reaction consisted of 2 µL compound (10 mM stock in 100% DMSO), 5
(§13) 475µL PfATC-Sypro orange mixture and 43 µL assay buffer. Final protein assay concentration was
(§14) 4765µM, final DMSO concentration war […]. After incubation for 20 min at 20 ℃, the samples
(§15) 477were hated from 25℃ to 95℃ at a rate of 0.5 ℃ min -1. The inflection points of the melting curves
(§16) 478were determined using BioRad CSV 96 control software and processed & plotted by GraphPad.
(§17) 479Microscale Thermophoresis (MST). […]

[4] = molecular target: T1, PfATC; experiment: Microscale thermophoresis (MST); type: binding; settings: n = 3
Text: as §3, §4, §5, §6, §7, §8, §9, §10, §11, §12, §13, §14, §15, §16, §17

[5] = tested on: HepG2 cells; experiment: Cytotoxicity on cultured human HepG2 cells; type: cell-based; settings: at a concentration of 100 μM
[6] = Insolubility interpreted from deviation of the MST curve; type: physicochemical; settings: pH 8, aqueous with cosolvent or surfactant or cyclodextrin, kinetic from dmso stock, MST buffer, read-out: concentration in excess of which the compound is insoluble
Procedure: We also modified the amino group and generated a new scaffold, suspecting that varying the R1, R2, and R3 groups would generate a series of compounds with optimized binding and improved inhibition (BDAs, Supporting Information Table 1). We evaluated the BDA series in an in vitro activity assay against malarial and human ATC (Figure 3A, Supporting Information Table 1). […] Significant deviations from the sigmoidal distribution of the MST curve are present at concentrations higher than 10 μM, which we have interpreted as indicative of BDA-04 insolubility at concentration in excess of 10 μM. To characterize the mechanism of inhibition by BDAs, enzyme activity assays were performed using BDA-04 as an exemplar (Figure 3F,G).
as §3, §4, §5, §6, §7
469final refinement included manual rebuilding in coot 27 and Refmac5 28. The resulting crystal […]
478were determined using BioRad CSV 96 control software and processed & plotted by GraphPad. […]

[7] = 10 mM L-aspartate, 5 mM carbamoyl phosphate, read-out: HsATC IC50

T1 sequence (A0A5K1K910 entry or part of it): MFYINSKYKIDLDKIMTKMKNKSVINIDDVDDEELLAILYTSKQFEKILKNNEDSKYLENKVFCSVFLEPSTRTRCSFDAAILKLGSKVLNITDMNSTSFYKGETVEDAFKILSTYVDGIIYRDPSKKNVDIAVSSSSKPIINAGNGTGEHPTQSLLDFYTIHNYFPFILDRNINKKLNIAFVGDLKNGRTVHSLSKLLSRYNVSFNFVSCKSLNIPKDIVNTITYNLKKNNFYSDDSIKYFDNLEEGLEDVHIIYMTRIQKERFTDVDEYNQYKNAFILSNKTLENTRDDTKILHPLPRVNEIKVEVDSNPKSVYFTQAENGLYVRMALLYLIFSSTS

**Q.** For `CC(C)(C)OC(=O)Nc1sc(-c2ccccc2)cc1C(=O)NCCc1ccc(O)cc1` [BDA-11], which IC50 [1] is on record?
**A.** The IC50 was 45.6 nM and 46 nM and 45.7 nM.

**Q.** And the IC50 [2, 7]?
**A.** The IC50 was 116 nM.

**Q.** With `COc1cccc(CCNC(=O)c2cc(-c3ccccc3)sc2NC(=O)OC(C)(C)C)c1` [BDA-24] as the molecule, how does the IC50 [1] read?
**A.** The IC50 was 103 nM.

**Q.** And the IC50 [2, 7]?
**A.** Its IC50 is 316 nM.

**Q.** Which results are given for `CC(C)(C)OC(=O)Nc1sc(-c2ccccc2)cc1C(=O)NCCO` [BDA-14]?
**A.** IC50 [1]: 115 nM and 114 nM; IC50 [2, 7]: 137 nM

**Q.** For `CC(C)(C)OC(=O)Nc1sc(-c2ccccc2)cc1C(=O)NCCc1ccccc1` [BDA-04], which IC50 [1] is on record?
**A.** The IC50 was 77.2 nM.

**Q.** And the mechanism of inhibition ([1]; with CP and Asp, 0, 200 and 400 nM BDA-04, one substrate fixed (2 mM CP or 1 mM Asp))?
**A.** The mechanism of inhibition was “noncompetitive inhibitor”.

**Q.** What about the IC50 [2, 7] of the same molecule?
**A.** Its IC50 is 2840 nM.

**Q.** And the IC50 ([2]; n = 3, read-out: IC50 against HsATC)?
**A.** Its IC50 is 2800 nM and 2840 nM.

**Q.** What about the ΔTm [3] of the same molecule?
**A.** Its ΔTm is 22.8 °C.

**Q.** And the Kd [4]?
**A.** The Kd was 66.3 nM.

**Q.** What about the “cytotoxic effect on cultured human HepG2 cells” value [5] of the same molecule?
**A.** Its value is “no cytotoxic effect”.

**Q.** What about the solubility at 10 min [6] of the same molecule?
**A.** Its solubility at 10 min is > 10 µM.
